Data on one substance can be found in patent US11446354B2, “Method of treatment” (Hexima Limited, priority 2014, dated 2022).

For series [1], the system named is Trichophyton rubrum, T. interdigitale, Microsporum fulvum and C. albicans. Put plainly: Inhibition assays summarised across the range of fungal pathogens. Format: cell-based. The conditions noted are these: summary of Table 3. On the procedure:
The inhibitory effects of the plant defensins on the growth of Trichophyton rubrum, T. interdigitale, Microsporum fulvum and C. albicans (obtained from the National Mycology Reference Centre, South Australia Pathology at the Women's and Children's Hospital, Adelaide, Australia) are measured essentially as described by Broekaert et al. (1990) FEMS Microbiol Lett 69:55-59. Spores of T. rubrum, T. interdigitale and M. fulvum are isolated from sporulating fungus growing on 1⁄2 strength Sabouraud dextrose agar (SDA). Spores were removed from the plates by the addition of 1⁄2 strength potato dextrose broth (PDB). C. albicans cells are grown in Yeast Peptone Broth (YPD) for 16 h. Spore and cell concentrations are measured using a hemocytometer. Antifungal assays are conducted in 96 well microtitre plates essentially as herein described. Wells are loaded with 20 μL of filter sterilized (0.22 μm syringe filter, Millipore) defensin (10× stock for each final concentration) or water and 80 μL of 5×10^4 spores/mL (T. rubrum, T, interdigitale, M. fulvum) or 5,000 cells/mL (C. albicans) in 1⁄2 strength PDB. The plates are incubated at 30° C. Fungal growth is assayed by measuring optical density at 595 nm ([…]) using a microtitre plate reader (SpectraMax Pro M2; Molecular Devices. Growth is allowed to proceed until the optical density (OD) of the fungus in the absence of any test defensin reached an OD of 0.2. Each test is performed in duplicate.

Series [2] is classed as in vitro ADME, Human. On the procedure: Penetration of NaD1 through human nails was measured according to the method of Hui et al. (2002) J Pharm Sci 91(1):189-195. Human toenails were obtained from ScienceCare (USA) and washed with phosphate buffered saline (details, PBS) before being placed on a kimwipe that had been soaked in PBS for 3 h to rehydrate the nail. The nail was then placed in a plastic nail adapter with a dosing area of 0.5×0.5 cm (Permagear, USA) and a cotton bud wetted with 75 microlitres of PBS was placed in the receptor chamber in contact with the underside of the nail.
The cotton bud in contact with the underside of the nail was removed after 24 h and every 24 h following. Protein that had passed through the nail was recovered from the cotton bud by washing twice with 500 μL of 0.1% v/v trifluoroacetic acid. Recovered protein was quantified using RP-HPLC.

Series [3] has as its system clinical isolates of T. rubrum. Put plainly: Cell survival assay, clinical isolates of T. rubrum plated after 72 h with HXL008. It counts as cell-based, Trichophyton rubrum. As to conditions: 72 h with HXL008 (100 g/mL, 100 μM elsewhere in the source), 5 days at 30° C. On the procedure:
FIGS. 3(a) through (e) are photographic representations of surviving colonies of T. rubrum grown on agar plates after treatment with 100 μM HXL008 for 72 h. Panels (a) to (d) represent clinical isolates 14-01, 14-02, 14-03 and 13-04, respectively. Surviving colonies are marked with a black rectangle. Panel (e) represents the growth of T. rubrum that has not been treated with HXL008.
After incubation for 72 h, the media from wells containing clinical isolates of T. rubrum incubated with 100 […] HXL008 was plated onto fresh Sabouraud dextrose agar. Plates were incubated at 30° C. for 5 days to allow colonies to develop before being photographed.

Series [4] relates to Human monocytic lymphoma (U937) cells. It counts as cell-based. On the procedure: Human monocytic lymphoma (U937) cells are cultured in RPMI-1640 medium. All culture media are supplemented with 5-10% v/v fetal calf serum, 100 U/ml of penicillin, and 100 μg/ml of streptomycin. Cell lines are cultured at 37° C. in a humidified atmosphere containing 5% v/v CO2. Adherent cell lines are detached from the flask by adding a mixture containing 0.25% v/v trypsin and […]. A flow cytometry-based propidium iodide (PI) uptake assay is performed to analyze the ability of plant defensins to permeabilize U937 cells (essentially as described in Poon et al, 2014). Briefly, cells are suspended to 1×10^6 cells/ml in 0.1% v/v BSA/RPMI-1640 and incubated with plant defensins (10 μM) at 37° C. for 30 min. Samples are added to PBS containing a final concentration of 1 μg/ml PI and placed on ice. Samples are then analyzed immediately using the BD FACSCanto II Flow Cytometer and BD FACSDiva software v6.1.1. The resultant flow cytometry data is analyzed using FlowJo software v8.8.6. Cells are gated appropriately based on forward scatter and side scatter and cell permeabilization is defined by PI-positive staining.

For series [5], the system named is Escherichia coli. In words: Inhibition of the growth of Escherichia coli. Format: cell-based. As to conditions: 0.1625-10 μM, 18 hours, 37° C. On the procedure: A single E. coli colony was used to inoculate 5 ml of Luria-Bertani media and grown overnight at 37° C. The following day, the optical density of the culture was measured and the E. coli diluted to an optical density at 600 nm (OD600) of 0.01 in Mueller-Hinton Broth. Diluted E. coli were added to 96-well plates with defensins at concentrations of 10 μM, 5 μM, 2.5 μM, 1.25 μM, 0.625 μM, 0.3125 μM or 0.1625 μM. Plates were read at OD595 to obtain time zero data points. Plates were incubated at 37° C. for 18 hours before reading again at OD595 to assess the amount of E. coli growth.

Series [6] deals with Trichophyton rubrum. In words: Inhibition of growth of Trichophyton rubrum over 28 days, daily dosing. It counts as cell-based. On the procedure: The inhibitory effect of HXL008 on the growth of Trichophyton rubrum (obtained from the National Mycology Reference Centre, South Australia Pathology at the Women's and Children's Hospital, Adelaide, Australia) was monitored over 28 days.
Spores of T. rubrum, are isolated from sporulating fungus growing on ½ strength Sabouraud dextrose agar. Spores are removed from the plates by the addition of ½ strength potato dextrose broth (PDB). Spore and cell concentrations are measured using a hemocytometer.
Spores were diluted to a concentration of 5×10^4 spores/mL in ½ PBD (2 mL) containing 0, 10 or 50 μg/mL HXL008. Cultures are incubated at 30 C without shaking. After 24 h, 100 μL of each culture is extracted and plated onto ½ SDA plates. An additional 100 uL of ½ PDB is then added containing either 0, 20 or 100 μg of HXL008. SDA plates are then incubated at 30 C for 5 days. This process is repeated every 24 h for 28 days. After 15 days, the culture containing no HXL008 becomes too thick to pipette and is no longer used in the assay.

As for “HXL008: Class I plant defensin from Picramnia pentandra, SEQ ID NO: 1 (KVCTKPSKFFKGLCGTDGACTTACRKEGLHSGYCQLKGFLNSVCVCRKHC; HXL008 Picramnia pentandra)”, the “Antifungal activity across the range of fungal pathogens, result in words” value in series [1] was “most effective plant defensins across the range of fungal pathogens”. In series [2], the “Nail penetration, result in words” value was “able to penetrate nails faster and more effectively than the active ingredients of current topical onychomycosis therapies”. In addition, the “Surviving colonies on agar plates after incubation with HXL008” value in series [3] is given as 1-3 colonies. Besides, the “U937 cells permeabilized (PI-positive)” value in series [4] is recorded as “less than 2%”. In addition, the “Growth of E. coli in the presence of defensin” value in series [5] is listed as “did not inhibit growth of E. coli at the concentrations tested”. In addition, in series [6] (10 μg/mL or 50 μg/mL, over the duration of the assay (28 days)), the “Visible growth of T. rubrum in culture” value was “did not display any visible growth”. Further, the “T. rubrum cells killed” value in series [6] (HXL008 50 μg/mL, within 24 h) is listed as “more than 80%”. The “Surviving colonies per plate” value in series [6] (after 20 days of treatment, 100 μL plated) is 0 or only 1.
